≈ marks a conversion by molar mass, not a printed value. Where two headings read alike, the source gives them in different places.

Data set [1] is described as follows: NZW rabbit keratitis model, clinical evaluation (Total Ocular Score). As for the experimental part: Fifteen rabbits were received from Myrtles' Rabbitry, Thompson Station, TN. The clinical isolate of fluoroquinolone-resistant, methicillin-resistant (MRSA) Staphylococcus aureus (K950) was subcultured on 5% sheep blood agar and incubated at 37° C. in 6% CO2 overnight. The next morning, the MRSA strain was suspended in sterile trypticase soy broth to a 0.5 McFarland Standard, containing approximately 5×10^8 cfu/ml of bacteria. The absorbance of the suspension was measured at 650 nm using a Beckman DU-70 spectrophotometer. OD readings of 0.07 corresponded to 5×10^8 cfu/ml of bacteria. This concentration was appropriately diluted in sterile trypticase soy broth to provide the inoculum of approximately 1,000 (1.0×10^3) cfu/eye in 25 μl. Colony counts were performed on the inoculum to determine the actual cfu inoculated. Following general anesthesia with ketamine and xylazine and topical anesthesia with proparacaine and prior to bacterial inoculation in the left eyes, 6 mm areas of the corneal epithelia was removed centrally with an Amoils epithelial scrubber. Nothing was done to the right eyes. The 15 rabbits were then inoculated intrastromally in both eyes with 25 μl of the bacterial dilution of approximately 10^3 cfu/eye of the bacteria. The bacterial inoculation of the left eyes was directly under the epithelial defect created by the Amoils epithelial scrubber. The epithelia were removed in the left corneas in order to determine whether this layer of the cornea is a barrier for Oligomer 2 penetration when compared to the right cornea with an intact epithelium. A colony count was done on the inoculum to determine the actual cfu inoculated. The rabbits were immediately treated with analgesia in the form of and intramuscular injection of ketoprofen, 1.5 mg/kg. After 4 hours, the 15 rabbits were divided into 4 treatment groups and one untreated control group sacrificed at the onset of therapy. Both eyes of each rabbit of the treatment groups were treated with one 37 μl drop of the coded solutions or control Saline or 1 drop of vancomycin from its dropper bottle. The Oligomer 2 concentrations were masked and labeled as 1 and 2. The masked concentrations were 1% Oligomer 2 and 0.5% Oligomer 2 but the specific concentrations of solutions were not known to the lab workers who carried out the experiment. The vancomycin and control (Tris-Buffered Saline) were not masked.
Treatment was scheduled for every 15 minutes for 5 hours (21 total doses). However, PMX-1 and PMX-2 were exhausted after the 19th dose. Therefore, the actual treatment was 15 minutes for 4.5 hours (19 total doses). The 3 rabbits in group V were sacrificed 4 hours PI and large 9.5 mm buttons were removed from the corneas. These were placed in 1 ml of PBS and kept on ice. The corneal buttons were homogenized for 25 seconds on ice using the motorized homogenizer. After homogenization, colony counts were done on the homogenates using 5% sheep blood agar plates to determine the amount of bacteria contained in the corneas at the onset of therapy. Following the completion of therapy, the eyes were examined for clinical signs of infection. One hour after the final treatment, the treated rabbits (Groups I-IV) were sacrificed and large 9.5 mm buttons were removed from the corneas. These were placed in 1 ml of PBS and kept on ice. The corneal buttons were homogenized for 25 seconds on ice using the motorized homogenizer. After homogenization, colony counts were performed on the homogenates using 5% sheep blood agar plates to determine the amount of bacteria contained in the corneas after treatment. The next morning, the plates were counted and the number of cfu/eye of Staphylococcus aureus was determined for each cornea.
Fifteen rabbits were received from Myrtles' Rabbitry, Thompson Station, TN.

For a further data set, the system named is Moraxella Species (MS). The data set can be described thus: MIC of clinical ocular isolates (Example 1). It is filed as cell-based. As to conditions: MS clinical ocular isolates (n=25).
Another data set relates to Haemophilus influenzae. As to the kind of experiment: MIC, 25 ocular isolates, broth microdilution (Example 8). As to conditions: for MIC / MIC50 / MIC90: Haemophilus influenzae. It is filed as cell-based. As for the experimental part:
HTM (Haemophilus Test Medium) in tubes was inoculated with 25 ocular isolates of Haemophilus influenzae plus two controls (Staphylococcus aureus and E. coli) and incubated at 37° C. overnight. Additionally, Mueller-Hinton Broth in tubes was inoculated with two controls (Staphylococcus aureus and E. coli) and incubated at 37° C. overnight on a shaker set at 250 rpm.
On the day of testing, a 640 μg/ml (1280 μg/ml for Serratia marcescens and Pseudomonas aeruginosa) concentration was prepared from a 1% stock solution in 0.01% acetic acid, 0.2% BSA in polypropylene tubes.
Serial doubling dilutions in 0.01% acetic acid, 0.2% BSA in 96 well polypropylene plates, which are used as reservoirs for the inoculation of the test plates, were carried out to obtain serial dilutions of test agents at 10 times the required test concentrations: 640, 320, 160, 80, 40, 20, 10, 5, 2.5, 1.25, and 0.625 μg/ml (1280, 640, 320, 160, 80, 40, 20, 10, 5, 2.5, and 1.25 μg/ml for Serratia marcescens and Pseudomonas aeruginosa).
Ten μl of diluted 10×test agents was added to each well of one row of the 96 well polypropylene plates from column 2 to column 12 (column 1 is a control for bacteria alone, with no peptide). Test agent concentrations in columns 2-12 were as follows: 64, 32, 16, 8, 4, 2, 1, 0.5, 0.25, 0.125, and 0.0625 μg/ml (128, 64, 32, 16, 8, 4, 2, 1, 0.5, 0.25, and 0.125 μg/ml for Serratia marcescens and Pseudomonas aeruginosa). The same peptide was in each of the 8 rows. One plate contained dilutions of one test agent and 8 bacterial isolates.
On the day of testing, the overnight bacterial broth cultures of Haemophilus species was diluted in 5 ml of trypticase soy broth to yield turbidity equal to a 0.5 McFarland standard. The final inoculum for MIC testing for Haemophilus species was achieved by placing 0.1 ml of the turbidity adjusted sample to 5 ml of HTM medium.
Ninety μl of the bacterial suspensions was dispensed in each well from column 1 to column 12. Each bacterial isolate was placed in one row of a 96 well polypropylene plate containing the test agents. The plates were placed on shaker at 15 minutes at room temperature, and then incubated at 37° C. overnight. MICs were determined visually as the lowest concentration of drug that inhibits visible bacterial growth.
(In broth dilution the organism is exposed to a series of concentrations in liquid medium.)

Where [2] appears, read: 25 ocular isolates, HTM medium, read-out: Median MIC.
Setting [3] is: isolate 10 B1378, read-out: MIC.
The mark [4] stands for this setting: isolate 11 B1313, read-out: MIC.
Setting [5] is: isolate 12 B1477, read-out: MIC.
The mark [6] stands for this setting: isolate 13 B1286, read-out: MIC.
Where [7] appears, read: isolate 14 B1282, read-out: MIC.
[8] abbreviates: isolate 15 B1291, read-out: MIC.
Where [9] appears, read: isolate 16 B1280, read-out: MIC.
The mark [10] stands for this setting: isolate 17 B1279, read-out: MIC.
Setting [11] is: isolate 18 B1260, read-out: MIC.
Setting [12] is: isolate 19 B1238, read-out: MIC.
The mark [13] stands for this setting: isolate 20 B1209, read-out: MIC.
Setting [14] is: isolate 21 B1249, read-out: MIC.
Where [15] appears, read: isolate 22 B1248, read-out: MIC.
The mark [16] stands for this setting: isolate 23 B1244, read-out: MIC.
Where [17] appears, read: isolate 24 B1419, read-out: MIC.
Setting [18] is: isolate 25 B1222, read-out: MIC.
Setting [19] is: n=25 isolates, >64 replaced with 128.
The mark [20] stands for this setting: n=25 isolates, >64 replaced with 128, read-out: Median MIC.

For `CC(C)=CCCC(C)=CCCC(C)=CCO` [Farnesol], the “Toxicity (Total Ocular Scores) compared with Saline treated eyes” value in data set [1] (rabbit, in vivo) is on record as “did not induce statistically greater toxicity”.
Consider `N=C(N)NCCCCC(=O)Nc1cc(C(F)(F)F)cc(NC(=O)c2cc(C(=O)Nc3cc(C(F)(F)F)cc(NC(=O)CCCCNC(=N)N)c3SCCN)ncn2)c1SCCN` [Oligomer 2], for which, in the data set on Moraxella Species (MS), the MIC50 is 0.25 µg/mL and the MIC90 is 0.5 µg/mL. For the same compound, the “Effect of removal of the epithelium on Total Ocular Scores” value in data set [1] (Ker-1, 1% and 0.5% Oligomer 2, compared with intact epithelia) was “increased the Total Ocular Scores”.
On to `N=C(N)NCCCCC(=O)Nc1cc(C(F)(F)F)cc(NC(=O)c2cc(C(=O)Nc3cc(C(F)(F)F)cc(NC(=O)CCCCNC(=N)N)c3O[C@@H]3CCNC3)ncn2)c1O[C@@H]1CCNC1` [Oligomer 4], for which the MIC with Haemophilus influenzae (setting [2]) was determined as 8 µg/mL (≈ 8.54 µM); with Haemophilus influenzae (isolate 1 B1359, read-out: MIC), 8 µg/mL (≈ 8.54 µM); in the data set on Haemophilus influenzae (isolate 2 B1346, read-out: MIC) it was 8 µg/mL (≈ 8.54 µM); in the data set on Haemophilus influenzae (isolate 3 B1345, read-out: MIC), 8 µg/mL (≈ 8.54 µM); in the data set on Haemophilus influenzae (isolate 4 B1343, read-out: MIC), 8 µg/mL (≈ 8.54 µM); in the data set with Haemophilus influenzae (isolate 5 B1338, read-out: MIC), 4 µg/mL (≈ 4.27 µM). For the same compound, the MIC in the data set on Haemophilus influenzae (isolate 6 B1332, read-out: MIC) stood at 8 µg/mL (≈ 8.54 µM); in the data set on Haemophilus influenzae (isolate 7 B1331, read-out: MIC), 8 µg/mL (≈ 8.54 µM); in the data set on Haemophilus influenzae (isolate 8 B1330, read-out: MIC), 8 µg/mL (≈ 8.54 µM); with Haemophilus influenzae (isolate 9 B1379, read-out: MIC), 16 µg/mL (≈ 17.1 µM); in the data set on Haemophilus influenzae (setting [3]), 8 µg/mL (≈ 8.54 µM); with Haemophilus influenzae (setting [4]), 4 µg/mL (≈ 4.27 µM). Further, the MIC in the data set on Haemophilus influenzae (setting [5]) was 8 µg/mL (≈ 8.54 µM); in the data set with Haemophilus influenzae (setting [6]) it was 8 µg/mL (≈ 8.54 µM); in the data set on Haemophilus influenzae (setting [7]), 32 µg/mL (≈ 34.2 µM); in the data set on Haemophilus influenzae (setting [8]), 8 µg/mL (≈ 8.54 µM); with Haemophilus influenzae (setting [9]), 8 µg/mL (≈ 8.54 µM); in the data set on Haemophilus influenzae (setting [10]), 16 µg/mL (≈ 17.1 µM). The MIC came to 8 µg/mL (≈ 8.54 µM) in the data set with Haemophilus influenzae (setting [11]); 2 µg/mL (≈ 2.13 µM) in the data set with Haemophilus influenzae (setting [12]); 4 µg/mL (≈ 4.27 µM) with Haemophilus influenzae (setting [13]); 4 µg/mL (≈ 4.27 µM) with Haemophilus influenzae (setting [14]); 8 µg/mL (≈ 8.54 µM) with Haemophilus influenzae (setting [15]); 8 µg/mL (≈ 8.54 µM) in the data set with Haemophilus influenzae (setting [16]). The values for the MIC in the data set with Haemophilus influenzae (setting [17]), in the data set on Haemophilus influenzae (setting [18]) and with Haemophilus influenzae (setting [20]) were 4 µg/mL (≈ 4.27 µM), 8 µg/mL (≈ 8.54 µM) and 8 µg/mL (≈ 8.54 µM), respectively. The MIC50 against Haemophilus influenzae (setting [19]) amounted to 8 µg/mL (≈ 8.54 µM). In the data set with Haemophilus influenzae (setting [19]), the MIC90 came out at 8 µg/mL (≈ 8.54 µM). In addition, the “Range of MICs” value in the data set with Haemophilus influenzae (setting [19]) was 2 to 32 µg/mL.
As to `N=C(N)NCCCCC(=O)Nc1cc(C(F)(F)F)cc(NC(=O)c2cnc(C(=O)Nc3cc(C(F)(F)F)cc(NC(=O)CCCCNC(=N)N)c3SCCN)cn2)c1SCCN` [Oligomer 5], the MIC in the data set with Haemophilus influenzae (setting [2]) is 16 µg/mL (≈ 17.4 µM); with Haemophilus influenzae (isolate 1 B1359, read-out: MIC) it was greater than 64 µg/mL; in the data set with Haemophilus influenzae (isolate 2 B1346, read-out: MIC), greater than 64 µg/mL; with Haemophilus influenzae (isolate 3 B1345, read-out: MIC) it was greater than 64 µg/mL; in the data set with Haemophilus influenzae (isolate 4 B1343, read-out: MIC), greater than 64 µg/mL; in the data set on Haemophilus influenzae (isolate 5 B1338, read-out: MIC), 16 µg/mL (≈ 17.4 µM). Also, the MIC in the data set with Haemophilus influenzae (isolate 6 B1332, read-out: MIC) is 64 µg/mL (≈ 69.8 µM); in the data set with Haemophilus influenzae (isolate 7 B1331, read-out: MIC), greater than 64 µg/mL; with Haemophilus influenzae (isolate 8 B1330, read-out: MIC) it was greater than 64 µg/mL; in the data set on Haemophilus influenzae (isolate 9 B1379, read-out: MIC), 8 µg/mL (≈ 8.72 µM); in the data set with Haemophilus influenzae (setting [3]), 4 µg/mL (≈ 4.36 µM); with Haemophilus influenzae (setting [4]), 2 µg/mL (≈ 2.18 µM). For the same compound, the MIC came to 4 µg/mL (≈ 4.36 µM) with Haemophilus influenzae (setting [5]); 2 µg/mL (≈ 2.18 µM) with Haemophilus influenzae (setting [6]); 8 µg/mL (≈ 8.72 µM) in the data set on Haemophilus influenzae (setting [7]); 16 µg/mL (≈ 17.4 µM) with Haemophilus influenzae (setting [8]); 16 µg/mL (≈ 17.4 µM) in the data set with Haemophilus influenzae (setting [9]); 64 µg/mL (≈ 69.8 µM) in the data set with Haemophilus influenzae (setting [10]). Besides, the MIC is 16 µg/mL (≈ 17.4 µM) with Haemophilus influenzae (setting [11]); 8 µg/mL (≈ 8.72 µM) in the data set with Haemophilus influenzae (setting [12]); 8 µg/mL (≈ 8.72 µM) with Haemophilus influenzae (setting [13]); 16 µg/mL (≈ 17.4 µM) in the data set with Haemophilus influenzae (setting [14]); 4 µg/mL (≈ 4.36 µM) with Haemophilus influenzae (setting [15]); 32 µg/mL (≈ 34.9 µM) in the data set with Haemophilus influenzae (setting [16]). Further, the results for the MIC in the data set on Haemophilus influenzae (setting [17]), in the data set with Haemophilus influenzae (setting [18]) and with Haemophilus influenzae (setting [20]) were 32 µg/mL (≈ 34.9 µM), greater than 64 µg/mL and 16 µg/mL (≈ 17.4 µM), respectively. This compound had an MIC50 in the data set on Haemophilus influenzae (setting [19]) of 16 µg/mL (≈ 17.4 µM). For the same compound, in the data set on Haemophilus influenzae (setting [19]), the MIC90 worked out at 128 µg/mL (≈ 140 µM). The “Range of MICs” value in the data set on Haemophilus influenzae (setting [19]) was 2 to 128 µg/mL.

For the origin of these results see patent US20130065818A1, “Arylamide Compounds And Compositions And Uses Thereof” (POLYMEDIX, priority 2006, published 2013).
